Laboratory results as given in ChEMBL document CHEMBL1201862, “PubChem BioAssay data set” (2004).
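Method: 48-hour compound exposure of cells in 96-well plates, five concentrations, linear interpolation of endpoints. At the GI50, growth is halved.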 Activity calls are given as the source filed them. Cut-off read from the data, not from the text of the source: active = GI50 up to about 1.1 µM and inactive = higher.

What was measured:
Experiment in all cases: DTP human tumour cell line panel, 48 h
[1] = test system: DU-145
[2] = test system: EKVX
[3] = test system: HCC 2998
[4] = test system: IGROV-1
[5] = test system: KM12
[6] = test system: M14
[7] = test system: MCF7
[8] = test system: NCI-H522
[9] = test system: OVCAR-3
[10] = test system: OVCAR-5
[11] = test system: RXF 393
[12] = test system: SK-MEL-28
[13] = test system: SN12C
[14] = test system: SNB-75
[15] = test system: SW-620
[16] = test system: T47D
[17] = test system: TK-10
[18] = test system: U-251
[19] = test system: MDA-N
[20] = test system: SK-OV-3

SMILES | GI50 [1] | GI50 [2] | GI50 [3] | GI50 [4] | GI50 [5] | GI50 [6] | GI50 [7] | GI50 [8] | GI50 [9] | GI50 [10] | GI50 [11] | GI50 [12] | GI50 [13] | GI50 [14] | GI50 [15] | GI50 [16] | GI50 [17] | GI50 [18] | GI50 [19] | GI50 [20]
c1ccc2c(c1)ccc1ncccc12 | > 100 µM (inactive) | > 100 µM (inactive) | > 100 µM (inactive) | > 100 µM (inactive) | > 100 µM (inactive) | > 100 µM (inactive) | > 100 µM (inactive) | > 100 µM (inactive) | > 100 µM (inactive) | > 100 µM (inactive) | > 100 µM (inactive) | > 100 µM (inactive) | > 100 µM (inactive) | > 100 µM (inactive) | > 100 µM (inactive) | > 100 µM (inactive) | > 100 µM (inactive) | 79.3 µM (inactive) |  | 
C=C1CC[C@H]2C(=O)OC(c3ccoc3)C[C@]2(C)C/C=C\C=C/1C(=O)OC (stereo partly specified) |  | > 25 µM (inactive) | > 25 µM (inactive) | > 25 µM (inactive) | > 25 µM (inactive) | > 25 µM (inactive) | > 25 µM (inactive) |  | 13.9 µM (inactive) | > 25 µM (inactive) | > 25 µM (inactive) | > 25 µM (inactive) | > 25 µM (inactive) | 24 µM (inactive) | > 25 µM (inactive) |  | > 25 µM (inactive) | > 25 µM (inactive) | > 25 µM (inactive) | > 25 µM (inactive)
COc1ccc2c(c1)CC[C@@H]1[C@@H]2CC[C@]2(C)C(=O)/C(=C/c3cc(OC)c(OC)c(OC)c3)C[C@@H]12 | 42.4 µM (inactive) | 61.2 µM (inactive) | 42.8 µM (inactive) |  | 29 µM (inactive) | 23.2 µM (inactive) | 42.5 µM (inactive) |  | 19.5 µM (inactive) | 24.4 µM (inactive) | 29.6 µM (inactive) |  |  | 19.4 µM (inactive) | > 100 µM (inactive) | 67 µM (inactive) | 19.4 µM (inactive) | 34.8 µM (inactive) |  | 44 µM (inactive)
COc1cc(C2SCC(=O)N2c2cc(Cl)c(Cl)cc2Cl)cc(OC)c1OC (stereo unspecified) | 41.3 µM (inactive) | 37.3 µM (inactive) | 32.1 µM (inactive) | 62.4 µM (inactive) | 31.3 µM (inactive) | 54.2 µM (inactive) | 37.7 µM (inactive) | 46 µM (inactive) | 22.2 µM (inactive) | > 100 µM (inactive) |  | 84.5 µM (inactive) | 36.5 µM (inactive) |  | 82 µM (inactive) |  | > 100 µM (inactive) | 77.8 µM (inactive) | 25.3 µM (inactive) | 40.7 µM (inactive)
Cc1c(C(=O)C/C(=N/NC(=O)CC#N)C(N)=O)[n+]([O-])c2ccccc2[n+]1[O-] |  | > 100 µM (inactive) | 39.5 µM (inactive) | 20.5 µM (inactive) | 28 µM (inactive) | 34.5 µM (inactive) |  | 19.8 µM (inactive) | 22.9 µM (inactive) | > 100 µM (inactive) | > 100 µM (inactive) | > 100 µM (inactive) | 30.2 µM (inactive) | > 100 µM (inactive) | 17.7 µM (inactive) |  | > 100 µM (inactive) | 35.7 µM (inactive) |  | > 100 µM (inactive)
COc1ccc(C2OC[C@H]3O[C@@H](OCc4ccccc4)[C@H](O)[C@@H](O)[C@@H]3O2)cc1 (stereo partly specified) | > 100 µM (inactive) | 68.5 µM (inactive) | > 100 µM (inactive) | 55 µM (inactive) |  |  | > 100 µM (inactive) |  | > 100 µM (inactive) | > 100 µM (inactive) | > 100 µM (inactive) | > 100 µM (inactive) | > 100 µM (inactive) | 2.29 µM (inactive) | > 100 µM (inactive) |  | > 100 µM (inactive) | > 100 µM (inactive) | > 100 µM (inactive) | > 100 µM (inactive)
CC(=O)Nc1cccc(/N=N/N(C)C)c1 |  | > 100 µM (inactive) | > 100 µM (inactive) | > 100 µM (inactive) | > 100 µM (inactive) |  | > 100 µM (inactive) | > 100 µM (inactive) | > 100 µM (inactive) | > 100 µM (inactive) | > 100 µM (inactive) | > 95.3 µM (inactive) | > 100 µM (inactive) | > 49.3 µM (inactive) | > 100 µM (inactive) |  |  | > 100 µM (inactive) |  | > 100 µM (inactive)
CN1CCOC(c2ccc(Cl)cc2)O1 (stereo unspecified) |  | > 100 µM (inactive) | > 100 µM (inactive) | > 100 µM (inactive) | > 100 µM (inactive) | > 100 µM (inactive) | > 100 µM (inactive) | > 100 µM (inactive) | > 100 µM (inactive) | > 100 µM (inactive) | > 100 µM (inactive) | > 100 µM (inactive) | > 100 µM (inactive) | > 100 µM (inactive) | > 100 µM (inactive) |  | > 100 µM (inactive) | > 100 µM (inactive) | > 100 µM (inactive) | > 100 µM (inactive)
OCC(O)COc1ccc(F)cc1 (stereo unspecified) |  | > 100 µM (inactive) | > 100 µM (inactive) | > 100 µM (inactive) | > 100 µM (inactive) | > 100 µM (inactive) |  | > 100 µM (inactive) | > 100 µM (inactive) | > 100 µM (inactive) | > 100 µM (inactive) | > 100 µM (inactive) | > 100 µM (inactive) | > 100 µM (inactive) | > 100 µM (inactive) |  | > 100 µM (inactive) | > 100 µM (inactive) |  | > 100 µM (inactive)
C/C=C/C(=O)Oc1cccc2cccnc12 |  | 6.85 µM (inactive) | 20.6 µM (inactive) | 24.6 µM (inactive) | 16 µM (inactive) | 3.79 µM (inactive) |  | 1.82 µM (inactive) | 3.24 µM (inactive) | 16.5 µM (inactive) | 12.4 µM (inactive) | 14.5 µM (inactive) | 5.87 µM (inactive) | 14.4 µM (inactive) | 5.61 µM (inactive) |  | 44.2 µM (inactive) | 1.14 µM (inactive) |  | 32.9 µM (inactive)
CCCC(O)C(NC(=O)CCl)C(=O)O (stereo unspecified) |  | > 100 µM (inactive) | > 100 µM (inactive) | > 100 µM (inactive) | > 100 µM (inactive) |  | > 100 µM (inactive) | > 100 µM (inactive) | > 100 µM (inactive) | > 100 µM (inactive) | > 100 µM (inactive) | > 100 µM (inactive) | > 100 µM (inactive) | > 100 µM (inactive) | > 100 µM (inactive) |  |  | > 100 µM (inactive) |  | > 100 µM (inactive)
CSCCC(NC(=O)C(Cc1ccccc1)NC(=O)CNC(=O)CNC(=O)C(N)Cc1ccc(O)cc1)C(=O)O (stereo unspecified) |  | > 100 µM (inactive) | > 100 µM (inactive) | > 100 µM (inactive) | > 100 µM (inactive) |  | > 100 µM (inactive) | > 100 µM (inactive) | > 100 µM (inactive) | > 55.5 µM (inactive) | > 100 µM (inactive) | > 100 µM (inactive) | > 100 µM (inactive) | > 90.2 µM (inactive) | > 100 µM (inactive) |  |  | > 100 µM (inactive) |  | > 100 µM (inactive)
NC(=O)CCCC(NCc1c2ccccc2nc2ccccc12)C(=O)O (stereo unspecified) |  | 56.6 µM (inactive) | 50.9 µM (inactive) | 48.5 µM (inactive) | 29.2 µM (inactive) | 42.4 µM (inactive) |  | 22.6 µM (inactive) | 37.9 µM (inactive) | > 100 µM (inactive) | 51.8 µM (inactive) | > 100 µM (inactive) | 41.5 µM (inactive) | 58.2 µM (inactive) | 50.9 µM (inactive) |  | 55 µM (inactive) | > 100 µM (inactive) |  | > 100 µM (inactive)
C(/C=N/c1ccccc1)=C(/Nc1ccccc1)c1ccc2ccccc2c1 | 2.02 µM (inactive) |  |  | 2.88 µM (inactive) | 1.78 µM (inactive) | 1.87 µM (inactive) | 3.18 µM (inactive) | 3.87 µM (inactive) | 1.46 µM (inactive) | 2.51 µM (inactive) | 1.66 µM (inactive) | 0.231 µM (active) | 1.6 µM (inactive) | 1.64 µM (inactive) | 3.88 µM (inactive) | 2.36 µM (inactive) | 1.45 µM (inactive) | 2.65 µM (inactive) |  | 2.76 µM (inactive)
NC(=O)c1ncn2c1NCC1OC2C(O)C1O (stereo unspecified) |  | > 100 µM (inactive) | > 100 µM (inactive) | > 100 µM (inactive) | > 100 µM (inactive) | > 100 µM (inactive) |  | > 100 µM (inactive) | > 100 µM (inactive) | > 100 µM (inactive) | > 100 µM (inactive) | > 100 µM (inactive) | > 100 µM (inactive) | > 100 µM (inactive) | > 100 µM (inactive) |  | > 100 µM (inactive) | > 100 µM (inactive) |  | > 100 µM (inactive)
CC1(C)C[C@H]2C3=CC[C@@H]4[C@@]5(C)CC[C@H](O)C(C)(C)[C@@H]5CC[C@@]4(C)[C@]3(C)C[C@@H](O)[C@@]23C[C@@H]1OC3=O | > 100 µM (inactive) | > 100 µM (inactive) | 96.8 µM (inactive) | > 100 µM (inactive) | 70.3 µM (inactive) | > 100 µM (inactive) | 59.2 µM (inactive) | 56.5 µM (inactive) | > 100 µM (inactive) | > 100 µM (inactive) |  | > 100 µM (inactive) | > 100 µM (inactive) | > 100 µM (inactive) | > 100 µM (inactive) | 56.6 µM (inactive) | > 100 µM (inactive) | > 100 µM (inactive) |  | > 100 µM (inactive)
